What was measured:
Test in all cases: relative viability (nuclei count vs DMSO), 5 days (fraction); higher = more cells survive
Seliciclib + Olaparib = compound: CC[C@H](CO)Nc1nc(NCc2ccccc2)c2ncn(C(C)C)c2n1 [Seliciclib] + O=C(c1cc(Cc2n[nH]c(=O)c3ccccc23)ccc1F)N1CCN(C(=O)C2CC2)CC1 [Olaparib] (partner 8 µM)
Procedure, shortened: (§1)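 Relative viability divides the nuclei count in treated wells by that in vehicle wells. Lung cancer cell lines were seeded in 1536-well plates, dosed by pin tool the next day, and fixed and stained after 5 days in one step with final 0.05% Triton X-100, 1% formaldehyde and 1 ug/ml Hoechst. Dosing was a single drug or a fixed anchor-drug dose plus five library-drug doses (not always all listed) in √10 steps, and values are medians of duplicate plates imaged at 4×.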

Seliciclib + Alpelisib = compound: CC[C@H](CO)Nc1nc(NCc2ccccc2)c2ncn(C(C)C)c2n1 [Seliciclib] + Cc1nc(NC(=O)N2CCC[C@H]2C(N)=O)sc1-c1ccnc(C(C)(C)C(F)(F)F)c1 [Alpelisib] (partner 2 µM)
Procedure, shortened: as §1

Seliciclib + Pemetrexed = compound: CC[C@H](CO)Nc1nc(NCc2ccccc2)c2ncn(C(C)C)c2n1 [Seliciclib] + Nc1nc2[nH]cc(CCc3ccc(C(=O)N[C@@H](CCC(=O)O)C(=O)O)cc3)c2c(=O)[nH]1 [Pemetrexed] (partner 0.2 µM)
Procedure, shortened: as §1

Seliciclib + Foretinib = compound: CC[C@H](CO)Nc1nc(NCc2ccccc2)c2ncn(C(C)C)c2n1 [Seliciclib] + COc1cc2c(Oc3ccc(NC(=O)C4(C(=O)Nc5ccc(F)cc5)CC4)cc3F)ccnc2cc1OCCCN1CCOCC1 [Foretinib] (partner 0.25 µM)
Procedure, shortened: as §1

Row | Cell Line | relative viability (Seliciclib + Olaparib; first compound 0.08 µM) | relative viability (Seliciclib + Olaparib; first compound 0.253 µM) | relative viability (Seliciclib + Olaparib; first compound 0.8 µM) | relative viability (Seliciclib + Olaparib; first compound 2.53 µM) | relative viability (Seliciclib + Olaparib; first compound 8 µM) | relative viability (Seliciclib + Alpelisib; first compound 0.08 µM) | relative viability (Seliciclib + Alpelisib; first compound 0.253 µM) | relative viability (Seliciclib + Alpelisib; first compound 0.8 µM) | relative viability (Seliciclib + Alpelisib; first compound 2.53 µM) | relative viability (Seliciclib + Alpelisib; first compound 8 µM) | relative viability (Seliciclib + Pemetrexed; first compound 0.08 µM) | relative viability (Seliciclib + Pemetrexed; first compound 0.253 µM) | relative viability (Seliciclib + Pemetrexed; first compound 0.8 µM) | relative viability (Seliciclib + Pemetrexed; first compound 2.53 µM) | relative viability (Seliciclib + Pemetrexed; first compound 8 µM) | relative viability (Seliciclib + Foretinib; first compound 0.08 µM) | relative viability (Seliciclib + Foretinib; first compound 0.253 µM) | relative viability (Seliciclib + Foretinib; first compound 0.8 µM) | relative viability (Seliciclib + Foretinib; first compound 2.53 µM) | relative viability (Seliciclib + Foretinib; first compound 8 µM)
1 | UMC-11 | 0.367 | 0.388 | 0.381 | 0.352 | 0.293 | 0.856 | 0.896 | 0.995 | 1.24 | 0.823 | 0.741 | 0.753 | 0.789 | 0.78 | 0.594 | 1.05 | 0.87 | 1.01 | 0.939 | 0.784
2 | A-427 | 0.79 | 0.714 | 0.712 | 0.617 | 0.639 | 1.05 | 1.16 | 1.12 | 1.08 | 0.927 | 1.01 | 1.01 | 1.03 | 0.963 | 0.917 | 1.06 | 1.11 | 0.944 | 1.28 | 1.17
3 | LCLC-97TM1 | 0.453 | 0.47 | 0.322 | 0.381 | 0.265 | 0.243 | 0.308 | 0.382 | – | 0.23 | 0.206 | 0.148 | 0.192 | 0.135 | 0.135 | 0.936 | 0.952 | 0.961 | 0.793 | 0.72
4 | HCC-15 | 0.707 | 0.792 | 0.72 | 0.796 | 0.669 | 0.956 | 0.954 | 0.846 | 0.902 | 0.712 | 0.221 | 0.223 | 0.219 | 0.218 | 0.226 | 1.06 | 1.13 | 0.968 | 0.959 | 0.724
5 | NCI-H647 | 0.526 | 0.433 | 0.512 | 0.649 | 0.313 | 0.952 | 1.1 | 0.978 | 1.15 | 0.618 | 0.2 | 0.151 | 0.174 | 0.179 | 0.196 | 1.16 | – | 1.13 | 1.19 | 1.09
6 | SW 1573 | 0.473 | 0.487 | 0.527 | 0.471 | 0.425 | 0.653 | 0.805 | 0.786 | 0.712 | 0.567 | 0.875 | 0.723 | 0.886 | 0.791 | 0.731 | 0.879 | 1.01 | 0.946 | 0.65 | 0.739
7 | NCI-H1651 | 0.195 | 0.182 | 0.201 | 0.188 | 0.169 | 0.93 | 0.839 | 0.833 | 0.81 | 0.804 | 0.518 | 0.591 | 0.61 | 0.388 | 0.561 | 0.583 | 0.754 | 0.819 | 0.857 | 0.75
8 | NCI-H2023 | 0.517 | 0.472 | 0.449 | 0.536 | 0.366 | 0.548 | 0.542 | 0.523 | 0.58 | 0.531 | 0.261 | 0.276 | 0.229 | 0.181 | 0.222 | 0.752 | 0.664 | 0.865 | 0.909 | 0.833
9 | COR-L 105 | 0.656 | 0.602 | 0.7 | 0.713 | 0.733 | 0.994 | 0.808 | 1.05 | 1.04 | 0.748 | 0.98 | 1.09 | 1.21 | 1.09 | 1.01 | 1.11 | 0.8 | 1.02 | 1.18 | 1.02
10 | NCI-H1734 | 0.58 | 0.513 | 0.595 | 0.536 | 0.521 | 0.659 | 0.651 | 0.622 | 0.683 | 0.674 | 0.417 | 0.35 | 0.432 | 0.448 | 0.416 | 0.809 | 0.702 | 0.802 | 0.793 | 0.738
11 | NCI-H3122 | 0.632 | 0.589 | 0.62 | 0.697 | 0.615 | 0.762 | 0.763 | 0.753 | 0.765 | 0.777 | 0.207 | 0.211 | 0.177 | 0.205 | 0.228 | 1.03 | – | 0.938 | 0.983 | 0.786
12 | CAL-12T | 0.759 | 0.712 | 0.742 | 0.585 | 0.472 | 1.11 | – | 0.86 | 1 | 0.946 | 1.16 | 0.949 | 1.2 | 1.06 | 1.01 | 1.16 | 1.48 | 1.26 | 1.21 | 0.731
13 | HCC-78 | 0.693 | 0.906 | 0.695 | 0.604 | 0.499 | 0.375 | 0.358 | 0.329 | 0.285 | 0.339 | 0.852 | 0.89 | 0.914 | 0.958 | 0.88 | 0.535 | 0.574 | 0.445 | 0.41 | 0.457
14 | NCI-H2085 | 0.734 | 0.845 | 0.73 | 0.738 | 0.63 | 0.971 | 1.19 | 0.984 | 0.926 | 0.809 | 0.979 | 1.01 | 0.856 | 0.935 | 0.727 | 0.89 | 0.954 | 0.903 | 0.829 | 0.676

From the supplement of paper PMC10307832
